Data: US20240252496A1, “SELECTIVE HYPOTHALAMUS PERMEABLE HDAC6 INHIBITORS FORTREATMENT OF LEPTIN-RESISTANT OBESITY” (The Children’s Medical Center Corporation, priority 2022, published 2024)

Key:
[1] = tested on: DMH neurons; test: ACY775-responsive DMH neurons in TRAP2 DIO mice (c-fos, HDAC6 depletion, caspase3 ablation); format: in vivo
Experimental: Following the bilateral injection of AAV-sgHDAC6 into the arcuate nucleus of Agrp-ires-cre::LSL-Cas9-GFP (Agrp-Cre^+/−::Cas9^+/−) or control LSL-Cas9-GFP (Cas9^+/−) mice, immunostaining to detect the expression of mCherry and GFP was performed. AAV-sg-HDAC6 injected Agrp-Cre^+/−::Cas9^+/− (HDAC6^Agrp-Δ) and Cas9^+/− (HDAC6^WT) DIO mice (n=7 for each group) were fasted for 24 hours, and injected with ACY775 (10 mg/kg. i.p). Hourly total dark cycle food intake (g) (n=7 for each group) of these mice after ACY775 injection was measured. Body weight of AAV-sg-HDAC6 injected HDAC6^Agrp-Δ (n=11) and HDAC6^WT (n=6) mice were measured during 3 weeks of ACY775 (10 mg/kg/day, i.p.) treatment. Daily average food intake of HDAC6^Agro-Δ (n=11) and HDAC6^WT (n=6) mice was measured during 3 weeks of ACY775 (10 mg/kg/day, i.p.) treatment. 24-hour food intake average of HDAC Agrp- and HDAC6^WT mice during the 3 weeks of ACY775 treatment was assessed. Serum leptin level (ng/ml) of HDAC6^Agrp-Δ and HDAC6^WT mice after 2 weeks of ACY775 treatment (n=13 for HDAC6^WT and n=18 for HDAC6^Agrp-Δ) was measured. Lean mass (g); fat mass; and fat percentage (%) of HDAC Agrp- and HDAC6^WT DIO mice after 3 weeks of ACY775 treatment was measured by DEXA scan. The HDAC6 inhibitor responsive neurons in the dorsomedial hypothalamus (DMH) were assessed. Immunostaining and quantification of c-Fos expression was performed in the DMH of DIO mice following one-time ACY775 treatment (10 mg/kg, i.p.).
Coordinates used for aav-sg-HDAC6 injection into the DMH of c-Fos-iCreER::LSL-Cas9-GFP (TRAP2-Cas9) mouse, mCherry immunostaining in the aav-sg-HDAC6 injected TRAP2-cas9 obese mice, which were treated three weeks earlier with one dose of ACY775 (10 mg/kg, i.p.) (TRAP2-HDAC6^DMH-Δ) or vehicle (TRAP2-HDAC6^WT), followed by 4-Hydroxytamoxifen (4-OHT) injection, were assessed. TRAP2-HDAC6^WT and TRAP2-HDAC6^DMH-Δ mice were fasted 24-h and treated with ACY775 (10 mg/kg, i.p.). Hourly and total dark cycle food intake (g) (n=4 for each group) was determined for these mice after ACY775 injection. Daily body weight of TRAP2-HDAC6^DMH-Δ (n=10) or TRAP2-HDAC6^WT (n=11) DIO mice was measured during 2 weeks of ACY775 (10 mg/kg/day, i.p) treatment. Daily average food intake of TRAP2-HDAC6^DMH-Δ (n=10) or TRAP2-HDAC6^WT (n=11) DIO mice was measured during 2 weeks of ACY775 treatment.
To investigate whether activity of other neuronal populations are altered after HDAC6 inhibitor treatment, c-fos staining was performed in the whole brain of DIO mice, which were acutely treated with ACY775. […] Some of the DMH neurons express high levels of LepRb and involved in regulation of appetite […]. […]

[2] = target: HDAC6 (Mus musculus (Mouse), UniProt Q9Z2V5); test: LepRb acetyl-lysine immunoblotting in HEK293 cells; format: cell-based; settings: 200 nM, 0.5-3 h
Sequence of HDAC6 (Q9Z2V5 whole entry): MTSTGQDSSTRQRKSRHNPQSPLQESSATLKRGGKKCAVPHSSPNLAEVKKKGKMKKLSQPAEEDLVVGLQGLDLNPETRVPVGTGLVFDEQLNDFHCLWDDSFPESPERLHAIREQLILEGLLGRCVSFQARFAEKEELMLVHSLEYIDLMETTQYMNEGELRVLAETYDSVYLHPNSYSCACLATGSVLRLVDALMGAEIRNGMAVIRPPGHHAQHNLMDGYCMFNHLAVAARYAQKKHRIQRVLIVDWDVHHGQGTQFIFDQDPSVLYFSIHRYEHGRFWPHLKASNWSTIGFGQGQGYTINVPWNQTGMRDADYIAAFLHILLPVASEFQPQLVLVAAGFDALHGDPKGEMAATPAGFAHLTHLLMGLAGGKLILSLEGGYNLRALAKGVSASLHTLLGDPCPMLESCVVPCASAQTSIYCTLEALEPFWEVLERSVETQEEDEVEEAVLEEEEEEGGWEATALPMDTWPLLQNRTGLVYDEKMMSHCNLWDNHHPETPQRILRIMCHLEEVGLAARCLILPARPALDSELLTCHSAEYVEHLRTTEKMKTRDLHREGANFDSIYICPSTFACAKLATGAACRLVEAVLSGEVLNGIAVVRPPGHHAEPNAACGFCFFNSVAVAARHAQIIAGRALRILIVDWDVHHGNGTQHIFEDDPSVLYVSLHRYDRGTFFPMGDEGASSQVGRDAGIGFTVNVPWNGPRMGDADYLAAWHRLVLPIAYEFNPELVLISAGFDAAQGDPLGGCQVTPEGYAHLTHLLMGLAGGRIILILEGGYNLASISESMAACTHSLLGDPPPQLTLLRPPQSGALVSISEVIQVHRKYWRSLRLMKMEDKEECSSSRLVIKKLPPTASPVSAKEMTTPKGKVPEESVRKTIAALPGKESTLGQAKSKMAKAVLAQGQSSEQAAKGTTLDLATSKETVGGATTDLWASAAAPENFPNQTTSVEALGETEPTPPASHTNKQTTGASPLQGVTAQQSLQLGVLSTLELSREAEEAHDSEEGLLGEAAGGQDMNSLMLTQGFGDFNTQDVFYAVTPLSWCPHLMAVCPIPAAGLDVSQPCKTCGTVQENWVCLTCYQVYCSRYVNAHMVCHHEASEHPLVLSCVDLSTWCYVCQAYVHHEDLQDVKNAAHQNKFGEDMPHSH
Experimental: HEK293 cells were transfected with the plasmids and were treated with vehicle or ACY775. Subsequently Flag immunoprecipitation was used to pull down LepRb followed by Ac^Lys or Flag immunoblotting.
To test whether HDAC6 can deacetylate LepRb, HEK293 cells were transfected with plasmids (LepRb-Flag, HA-p300 and HDAC6-myc). LepRb was immunoprecipitated by Flag antibodies, which was followed by acetyl-lysine (Ac^Lys) or immunoblottings.
Next, cells were transfected with plasmids (LepRb-Flag, HA-p300 and HDAC6-myc) and subsequently treated with ACY775 ([…]) for 0.5, 1, 2 and 3 h. […] Next, to investigate whether HDAC6 has any effect on LepRb tyrosine phosphorylation, which is indicative of LepRb activation, HEK 293 cells were transfected with LepRb and HDAC6-Myc plasmids in the indicated order and the cells stimulated with leptin (200 ng/ml) for 10 and 60 minutes. The Flag immunoprecipitates were exposed to phospho-tyrosine (p^Tyr) immunoblotting.

## O=C(NO)c1cnc(NC2(c3cccc(F)c3)CCCCC2)nc1 [ACY775, 2-[[1-(3-fluorophenyl)cyclohexyl]amino]-N-hydroxy-5-pyrimidinecarboxamide]
[1]; 10 mg/kg i.p.
  food intake in fasted caspase3^on-DMH vs caspase3^off-DMH mice: significantly higher than caspase3^off-DMH mice
[1]; 2 weeks, 10 mg/kg/day i.p.
  weight and food intake in TRAP2-HDAC6^DMH-Δ and TRAP2-HDAC6^WT mice: lost weight and food intake was reduced equally in both groups
[1]; DIO mice, acute treatment, fasting
  c-fos positive cells in DMH: major increase in c-fos positive cell number
[1]; chronic, 10 mg/kg/day i.p.
  body weight and food consumption in caspase3^on-DMH mice: neither reduced the body weight nor the food consumption
[2]
  deacetylation of LepRb: completely block deactylation of LepRb
